What all share (test): inhibition of tumour cell growth, NCI panel, 48 h
The test system of assay [1] is K-562 leukemia.
In assay [2] the test system is HL-60(TB) leukemia.
Assay [3] concerns 786-0 renal.
The test system of assay [4] is COLO 205 colon.
The test system of assay [5] is MALME-3M melanoma.
Assay [6] relates to OVCAR-5 ovarian.
In assay [7] the test system is MDA-MB-231 breast.
Assay [8] has as its system T-47D breast.
Assay [9] relates to HCC-2998 colon.
Assay [10] deals with A549 NSCLC.
Assay [11] relates to UACC-257 melanoma.

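How tested: cells in 96-well plates exposed to compound for 48 hours at five concentrations. TGI denotes the concentration required for complete inhibition of growth.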

The results in this text go back to PubChem BioAssay (NCI).

As for `COc1ccc(C(=O)/C=C/c2ccc(OCC(=O)O)cc2)cc1`, the TGI in assay [1], in assay [2], in assay [3], in assay [4], in assay [5] and in [6] was more than 100 µM in each case. Moreover, the TGI in assay [7], in [8], in assay [9] and in [10] was more than 100 µM each time.
Take `N#CC(C#N)=Cc1ccc(C=C2SC3=C(SCCS3)S2)s1`: the TGI in assay [2] is 7.03 µM; in assay [3] it was more than 100 µM; in assay [4], more than 100 µM; in assay [11], more than 100 µM; in assay [5], more than 100 µM; in assay [6] it was 35.2 µM. For the same molecule, the TGI in assay [7], in assay [8], in assay [9] and in assay [10] was more than 100 µM throughout.
On to `C[C@@H]1OC(=O)C[C@H]2CC(=O)N(CCC3CN(S(=O)(=O)C(F)(F)F)c4ccc(Cc5ccc6c(c5)C(CCN5C[C@H]7[C@@H](CC(=O)O[C@H]7C)CC5=O)CN6S(=O)(=O)C(F)(F)F)cc43)C[C@@H]21` (stereo partly drawn), for which the TGI in assay [1], in assay [3], in [4], in [11], in assay [5] and in [6] was more than 100 µM throughout. Further, the TGI in assay [7], in assay [8], in [9] and in assay [10] was more than 100 µM each time.
For `CC(=O)O[C@H]1[C@@H](OC2CCCC2(c2ccccc2)c2ccccc2)O[N+]([O-])=C[C@@]12COCc1cc3c(cc12)OCO3` (stereo partly drawn), the TGI was more than 23.7 µM in assay [1]; more than 100 µM in assay [2]; 22 µM in [3]; more than 58.2 µM in assay [4]; more than 100 µM in [11]; more than 51.5 µM in assay [6]. The TGI in assay [7] is more than 43.2 µM; in assay [8], more than 31.2 µM; in assay [9], 11.9 µM; in assay [10], more than 45.4 µM.
On to `O=c1[nH]c(=O)n(C2OC(CO)C(O)C2O)cc1OCCc1ccccc1` (stereo not drawn), for which the TGI in assay [2], in [3], in [4], in assay [11], in assay [5] and in assay [6] was more than 100 µM each time. Moreover, the TGI in [7], in [8], in assay [9] and in [10] was more than 100 µM throughout.
As to `O=C(Nc1nncs1)NS(=O)(=O)n1cnc2ccccc21`, the TGI in assay [2], in assay [3], in [4], in assay [11], in assay [5] and in assay [6] was more than 100 µM each time. Moreover, the TGI in assay [7], in [8], in assay [9] and in assay [10] was more than 100 µM throughout.
On to `COP(=O)(OC)C(O)/C=C(\Cl)c1ccc(Cl)cc1` (stereo not drawn), for which the TGI in [1] was more than 100 µM; in assay [2], more than 100 µM; in assay [3], 39.3 µM; in assay [4], more than 100 µM; in [11], 84.6 µM; in assay [5], more than 100 µM. In addition, the TGI in assay [6], in assay [7], in assay [8] and in [10] was more than 100 µM each time.
For the molecule `OCCCCn1cc(Cn2ncc3c(SCc4ccccc4)ncnc32)nn1`, the TGI was more than 100 µM in assay [1]; more than 100 µM in assay [3]; 91.4 µM in [4]; more than 100 µM in [11]; more than 100 µM in assay [5]; more than 100 µM in assay [6]. For the same molecule, the TGI in assay [7], in assay [8], in assay [9] and in assay [10] was more than 100 µM each time.
Take `COc1ccc(/C=C(\C(=O)OCC(C)C)c2ccc(OC)c(OC)c2)cc1OC`: the TGI in assay [1], in assay [2], in assay [3], in [4], in assay [11] and in assay [6] was more than 100 µM in each case. In addition, the TGI in [7] was 61.5 µM; in assay [8], more than 100 µM; in assay [9], more than 100 µM; in [10], more than 100 µM.
Consider `O=C1N(CN2CCOCC2)CN(CN2CCOCC2)C(=O)N1Cc1ccccc1`, for which the TGI in assay [1] was 51.4 µM; in assay [3], 71.8 µM; in assay [4] it was 36.1 µM; in [11], 48.6 µM; in assay [5] it was 29.5 µM; in [6] it was more than 100 µM. The TGI is 69.6 µM in [7], 77.1 µM in assay [8], more than 100 µM in assay [9] and more than 100 µM in [10].
As to `O=c1oc2cc(O)ccc2cc1-c1nc2ccccc2s1`, the TGI in assay [1] is more than 100 µM; in [2] it was 55.6 µM; in assay [3], 52.7 µM; in assay [4] it was 11 µM; in [11] it was 58.2 µM; in assay [6], more than 100 µM. The TGI in assay [7] amounted to 53.6 µM; in [8], 95.7 µM; in assay [9], 66.1 µM; in assay [10] it was 55.1 µM.
Consider `O=C1/C(=C/c2ccc(Cl)cc2)N=C(c2ccccc2)N1C1Nc2cc3c(cc2S1)NC(N1C(=O)/C(=C/c2ccc(Cl)cc2)N=C1c1ccccc1)S3` (stereo not drawn), for which the TGI in [1] is more than 100 µM; in [2], 2.47 µM; in assay [3], more than 100 µM; in [11] it was more than 100 µM; in assay [6], more than 100 µM; in assay [7], more than 100 µM. For the same molecule, the TGI in assay [8] and in assay [9] was more than 100 µM in each case.
Turning to `O=c1oc2cccnc2n1CCN1CCN(c2ccc(Oc3ccccc3)cc2)CC1`, the TGI in [1] was more than 100 µM; in assay [2] it was 86.4 µM; in assay [3], more than 100 µM; in assay [11] it was more than 100 µM; in assay [5], more than 100 µM; in [6], more than 100 µM. In addition, the TGI in assay [7], in assay [8], in [9] and in [10] was more than 100 µM in each case.
